Source: US20090298956A1, “SELF-PRESERVED EMULSIONS” (priority 2008, published 2009)

Key:
Format in all cases: cell-based
P. aeruginosa = experiment: Preservative efficacy test (PET), log reduction of P. aeruginosa; conditions: 24 hours, PET Screen International
Description: (§1) The antimicrobial activity and stability of the formulations shown in Table 1A below, which contain either 0.1 or 0.2 (w/v %) of Compound 1 were evaluated. Table 1A also contains an emulsion formulation (Formulation C) consisting of Cyclosporin and Compound 1. Table 1B constitutes overall standard preservative efficacy test (PET Screen International) results along with the results of a visual assessment of physical stability of the emulsions. […] Histograms for Formulation B, showing the initial particle size measurements as well as 60 weeks, can be seen in FIGS. 1A & 1B. Similarly, histograms for Formulation C, containing 0.05% Cyclosporin, showing the initial particle size measurements as well as at 62 weeks, can be seen in FIGS. 2A & 2B. […] The microbiological evaluation was conducted by determining the extent to which the emulsions reduced an initial population of about 10^6 cfu/mL microorganisms over time. The abbreviation “cfu” means colony forming unit. […] Overall EPA requirement of preservation in all tested formulations was achieved. The microbiology results are provided in greater detail in Table 1C, where the results of the evaluation of five microorganisms are provided.

S. aureus = experiment: Preservative efficacy test (PET), log reduction of S. aureus; conditions: 24 hours, PET Screen International
Description: as §1

C. albicans = experiment: Preservative efficacy test (PET), log reduction of C. albicans; conditions: 7 days, PET Screen International
Description: as §1

E. coli = experiment: Preservative efficacy test (PET), log reduction of E. coli; conditions: 24 hours, PET Screen International
Description: as §1

Work on “sodium coco-diimonium chloride phosphate [Compound 1]” yielded a log reductions (P. aeruginosa; 0.1% Compound 1 emulsion) of 5 log, a log reductions (P. aeruginosa; 0.2% Compound 1 emulsion) of 5 log and a log reductions (S. aureus; 0.1% Compound 1 emulsion) of 5 log. For the same substance, the log reductions (S. aureus; 0.2% Compound 1 emulsion) was 5 log, the log reductions (C. albicans; 0.1% Compound 1 emulsion) was “approximately 5 log” and the log reductions (C. albicans; 0.2% Compound 1 emulsion) was “approximately 5 log”. It also gave a log reductions (E. coli; 0.1% Compound 1 emulsion) of 5 log and a log reductions (E. coli; 0.2% Compound 1 emulsion) of 5 log.
